Results on five compounds are retold here after publication PMC4971072, “Chemically Homogenous Compounds with Antagonistic Properties at All α1-Adrenoceptor Subtypes but not β1-Adrenoceptor Attenuate Adrenaline-Induced Arrhythmia in Rats” (Frontiers in Pharmacology, 2016).

Assay [1] deals with adrenaline-induced arrhythmia in rats. The assay is described as follows: Prophylactic antiarrhythmic activity in adrenaline-induced arrhythmia. It counts as in vivo, rat. Conditions: for ED50: Rattus norvegicus, read-out: ED50 (confidence limits). As for the experimental part:
The studied compounds were administered i.p. 45 min before the injection of adrenaline, calcium chloride, or barium chloride. The electrocardiogram (ECG) was recorded during the first 2 min as well as in the 5th, 10th, and 15th min after the arrhythmogen injection. […]

The subject of assay [2] is lipid peroxidation in rat brain homogenate. In words: Lipid peroxidation in rat brain homogenate (TBARS), antioxidant effect. Format: biochemical. Particulars: 10^−3 M; for % reduction of absorbance (% antioxidant activity) / Absorbance: TBARs at 532 nm. As for the experimental part:
The rat brain homogenate containing 10 mg tissue/ml was prepared in 0.9% saline. The rates of membrane lipid peroxidation were measured by the formation of thiobarbituric acid reactive substances (TBARS). Rat brain homogenates (1 ml) were incubated at 37°C for 5 min with 10 μl of a tested compound or vehicle. Lipid peroxidation was initiated by the addition of 50 μl of 0.5 mM FeCl2 and 50 μl of 2.0 mM ascorbic acid. After 30 min of incubation, the reaction was stopped by adding 0.1 ml of 0.2% butylated hydroxytoluene (BHT). Thiobarbituric acid reagent was then added and the mixture was heated for 15 min in a boiling water bath.

Assay [3] concerns the target T1, α1D-adrenoreceptors (Rattus norvegicus, UniProt P23944).
T1 sequence (P23944 1-561): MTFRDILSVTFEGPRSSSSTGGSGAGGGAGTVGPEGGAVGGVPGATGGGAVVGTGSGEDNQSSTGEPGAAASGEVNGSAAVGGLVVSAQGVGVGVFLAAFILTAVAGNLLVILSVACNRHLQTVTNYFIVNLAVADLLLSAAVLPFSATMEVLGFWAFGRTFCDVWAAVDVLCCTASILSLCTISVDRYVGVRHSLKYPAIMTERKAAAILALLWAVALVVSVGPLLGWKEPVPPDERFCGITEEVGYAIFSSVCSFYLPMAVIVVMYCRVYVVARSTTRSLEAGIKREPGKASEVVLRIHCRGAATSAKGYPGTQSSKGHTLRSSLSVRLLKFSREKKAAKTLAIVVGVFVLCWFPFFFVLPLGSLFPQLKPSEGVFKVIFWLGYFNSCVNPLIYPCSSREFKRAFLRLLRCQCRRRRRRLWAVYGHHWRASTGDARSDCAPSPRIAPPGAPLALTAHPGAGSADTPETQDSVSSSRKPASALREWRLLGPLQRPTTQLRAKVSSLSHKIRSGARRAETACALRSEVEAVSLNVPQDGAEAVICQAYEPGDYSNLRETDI
The assay is described as follows: Functional bioassay, isolated rat aorta, noradrenaline contraction. Particulars: noradrenaline as agonist; for Kb: read-out: pA2 ± S.E.M., α1D (converted). It counts as biochemical. Further details: had aorta removed, denuded of endothelium and incubated in the Krebs-Henseleit solution; from tissue; host or cells: isolated rat aorta rings. The method, then: Finally, the influence on α1D-adrenoreceptors was investigated using the isolated rat aorta. […] The aorta rings were maintained at optimal tension of 2.0 g. During 3 h of equilibration tissues were stimulated with noradrenaline three times (0.3 μM). Two cumulative concentration-response curves to noradrenaline, at an interval of 60 min, were established on each tissue both in the presence and absence of antagonist. The incubation with antagonists went on for 30 min. The experiments were carried out in the constant presence of yohimbine (0.1 μM) and propranolol (1 μM) to block α2- and β-adrenoceptors, respectively.
Data are means ± S.E.M. of at least 4 separate experiments. To establish Hill slopes for the agonist concentration–response curves and calculate EC50 values, curves were fitted to all the data by non-linear regression. The EC50 value in the presence and absence of antagonists was used to ascertain the concentration ratio (CR). Schild analysis was performed.

Assay [4] addresses α1-adrenoceptor. The assay is described as follows: α1-adrenoceptor radioligand binding assay ([3H]-prazosin, rat cerebral cortex). Particulars: read-out: Adrenergic receptors Ki α1. As for the experimental part: (§1) The α1- and β1-adrenoceptor radioligand binding assay was performed on rat cerebral cortex. […] The cell pellet was resuspended in the Tris–HCl buffer and centrifuged again. Radioligand binding assays were performed in plates (MultiScreen/Millipore). […] The incubation was terminated by rapid filtration through glass fiber filters (Whatman GF/C) using a vacuum manifold (Millipore). The filters were then washed twice with the assay buffer and placed in scintillation vials with a liquid scintillation cocktail. […] All the assays were made in duplicate and the inhibitory constants (Ki) were estimated.
(§2) LO–labeled ligand concentration, KD–dissociation constant of labeled ligand

Assay [5] has as its target T2, β1-adrenergic receptor (Rattus norvegicus, UniProt P18090).
T2 construct: The brains were homogenized in 20 volumes of an ice-cold 50 mM Tris-HCl buffer; from tissue; host or cells: rat cerebral cortex membranes
In words: β1-adrenoceptor radioligand binding assay ([3H]-CGP-12177, rat cerebral cortex). Conditions: read-out: Adrenergic receptors Ki β1. As for the experimental part:
as §1, §2

[6] abbreviates: dose 2.5 mg/kg i.p. 45 min before adrenaline 20 μg/kg i.v.
[7] abbreviates: dose 5 mg/kg i.p. 45 min before adrenaline 20 μg/kg i.v.
[8] abbreviates: dose 10 mg/kg i.p. 45 min before adrenaline 20 μg/kg i.v.
Setting [9] is: dose 0.1 mg/kg i.p. 45 min before adrenaline 20 μg/kg i.v.
The mark [10] stands for this setting: dose 0.2 mg/kg i.p. 45 min before adrenaline 20 μg/kg i.v.
Where [11] appears, read: dose 0.3 mg/kg i.p. 45 min before adrenaline 20 μg/kg i.v.

Counter-ions that a name gives are not always drawn. Bounds are passed on as bounds.

T2 sequence (P18090 whole entry): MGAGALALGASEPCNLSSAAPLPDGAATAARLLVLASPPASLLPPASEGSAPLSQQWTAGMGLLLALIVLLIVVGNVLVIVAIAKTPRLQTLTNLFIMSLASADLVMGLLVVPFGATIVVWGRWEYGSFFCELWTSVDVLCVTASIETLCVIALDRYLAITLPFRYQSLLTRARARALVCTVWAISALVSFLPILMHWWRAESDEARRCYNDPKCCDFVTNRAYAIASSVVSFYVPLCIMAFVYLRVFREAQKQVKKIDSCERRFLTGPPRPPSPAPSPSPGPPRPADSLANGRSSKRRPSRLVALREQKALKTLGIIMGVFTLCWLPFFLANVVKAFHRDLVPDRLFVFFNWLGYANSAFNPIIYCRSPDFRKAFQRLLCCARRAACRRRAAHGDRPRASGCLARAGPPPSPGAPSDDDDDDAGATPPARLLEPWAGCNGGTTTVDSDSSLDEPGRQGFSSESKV

In the case of `COc1ccccc1N1CCN(CCOCCOc2c(C)cccc2C)CC1.Cl` [HBK-14, 1-[(2,6-dimethylphenoxy)ethoxyethyl]-4-(2-methoxyphenyl)piperazine hydrochloride], the ED50 (as a rule, the dose at which the effect has come halfway, by size or by number of responders) in assay [1] turned out to be 3.88 mg/kg. For the same compound, in assay [1] (setting [6]), the “Bigeminy (%)” value is 50.0%, the “Blocks (%)” value was found to be 83.3%, the “Bradycardia (%)” value is 83.3% and the “Extrasystoles (%)” value is reported as 100.0%. In assay [1] (setting [7]), the “Bigeminy (%)” value was 33.3%, the “Blocks (%)” value is reported as 33.3%, the “Bradycardia (%)” value is 50.0% and the “Extrasystoles (%)” value came out at 50.0%. In assay [1] (setting [8]), the “Bigeminy (%)” value is given as 16.7%, the “Blocks (%)” value is given as 33.3%, the “Bradycardia (%)” value turned out to be 50.0% and the “Extrasystoles (%)” value stood at 16.7%. For the same compound, in assay [2], the “inhibition of lipid peroxidation (in words)” value (“inhibition” below) is “inactive”, the “% reduction of absorbance (% antioxidant activity)” value (“% reduction of absorbance” below) is recorded as −4.10% and the Absorbance was found to be 0.939 ± 0.007. Besides, in assay [3], the “Schild slope ± S.E.M., α1D” value amounted to 1.09 ± 0.10 and the Kb was 1.38 nM.
For `COc1ccccc1N1CCN(CCOCCOc2c(C)cccc2Cl)CC1.Cl` [HBK-15, 1-[(2-chloro-6-methylphenoxy)ethoxyethyl]-4-(2-methoxyphenyl)piperazine hydrochloride], the ED50 in assay [1] was 4.8 mg/kg. In assay [1] (setting [6]), the “Bigeminy (%)” value stood at 33.3%, the “Blocks (%)” value came to 66.7%, the “Bradycardia (%)” value came to 66.7% and the “Extrasystoles (%)” value turned out to be 66.7%. Besides, in assay [1] (setting [7]), the “Bigeminy (%)” value is recorded as 16.7%, the “Blocks (%)” value stood at 50.0%, the “Bradycardia (%)” value is given as 66.7% and the “Extrasystoles (%)” value was found to be 50.0%. Also, in assay [1] (setting [8]), the “Bigeminy (%)” value was 16.7%, the “Blocks (%)” value is on record as 33.3%, the “Bradycardia (%)” value was 50.0% and the “Extrasystoles (%)” value is reported as 33.3%. Besides, in assay [2], the “inhibition” value is “inactive”, the “% reduction of absorbance” value was 1.22% and the Absorbance is reported as 0.891 ± 0.008. Further, in assay [3], the “Schild slope ± S.E.M., α1D” value is reported as 1.09 ± 0.09 and the Kb is 1.26 nM.
As to `COc1ccccc1N1CCN(CCCOc2cc(C)ccc2Cl)CC1` [HBK-16, 1N-[3-(2-chloro-5-methylphenoxy)propyl]-4N-(2-methoxyphenyl)piperazine hydrochloride], the inhibition constant Ki – broadly, the equilibrium dissociation constant of an inhibitor or competing ligand from its target – in assay [4] was 5 nM. In addition, the Ki in assay [5] is greater than 10000 nM. Also, the ED50 in assay [1] was 0.2 mg/kg. In assay [1] (setting [9]), the “Bigeminy (%)” value is on record as 33.3%, the “Blocks (%)” value was found to be 50.0%, the “Bradycardia (%)” value is on record as 66.7% and the “Extrasystoles (%)” value stood at 83.3%. Besides, in assay [1] (setting [10]), the “Bigeminy (%)” value came to 16.7%, the “Blocks (%)” value is 33.3%, the “Bradycardia (%)” value is given as 50.0% and the “Extrasystoles (%)” value was determined as 33.3%. Moreover, in assay [1] (setting [11]), the “Blocks (%)” value came out at 16.7%, the “Bradycardia (%)” value was determined as 33.3% and the “Extrasystoles (%)” value is given as 16.7%. Besides, in assay [2], the “inhibition” value is recorded as “inhibited lipid peroxidation”, the “% reduction of absorbance” value stood at 16.63% and the Absorbance was 0.752 ± 0.007. In assay [3], the “Schild slope ± S.E.M., α1D” value is reported as 1.11 ± 0.12 and the Kb was 0.724 nM.
For the compound `COc1ccccc1N1CCN(CCCOc2c(C)cc(C)cc2C)CC1` [HBK-18, 1N-[3-(2,4,6-trimethylphenoxy)propyl]-4N-(2-methoxyphenyl)piperazine hydrochloride], the Ki in assay [4] came to 5.2 nM. Further, the Ki in assay [5] was greater than 10000 nM. The ED50 in assay [1] came to 0.18 mg/kg. Further, in assay [1] (setting [9]), the “Bigeminy (%)” value was 50.0%, the “Blocks (%)” value came to 66.7%, the “Bradycardia (%)” value is given as 66.7% and the “Extrasystoles (%)” value is given as 83.3%. In assay [1] (setting [10]), the “Bigeminy (%)” value was 16.7%, the “Blocks (%)” value is recorded as 33.0%, the “Bradycardia (%)” value came to 50.0% and the “Extrasystoles (%)” value stood at 50.0%. In assay [1] (setting [11]), the “Blocks (%)” value is reported as 16.3%, the “Bradycardia (%)” value is listed as 16.3% and the “Extrasystoles (%)” value was determined as 16.7%. Besides, in assay [2], the “inhibition” value is listed as “inhibited lipid peroxidation”, the “% reduction of absorbance” value worked out at 13.41% and the Absorbance was determined as 0.781 ± 0.004. Also, in assay [3], the “Schild slope ± S.E.M., α1D” value was determined as 1.01 ± 0.05 and the Kb was 1.2 nM.
Consider `COc1ccccc1N1CCN(CCCOc2cc(C)cc(C)c2C)CC1` [HBK-19, 1N-[3-(2,3,5-trimethylphenoxy)propyl]-4N-(2-methoxyphenyl)piperazine hydrochloride], for which, in assay [4], the Ki was found to be 22.7 nM. Further, the Ki in assay [5] is greater than 10000 nM. Further, the ED50 in assay [1] was 0.21 mg/kg. Moreover, in assay [1] (setting [9]), the “Bigeminy (%)” value is reported as 33.3%, the “Blocks (%)” value is on record as 50.0%, the “Bradycardia (%)” value came out at 66.7% and the “Extrasystoles (%)” value is listed as 66.7%. Besides, in assay [1] (setting [10]), the “Bigeminy (%)” value is recorded as 16.7%, the “Blocks (%)” value is on record as 33.3%, the “Bradycardia (%)” value is reported as 33.3% and the “Extrasystoles (%)” value came out at 50.0%. Further, in assay [1] (setting [11]), the “Blocks (%)” value is 16.7%, the “Bradycardia (%)” value was found to be 16.7% and the “Extrasystoles (%)” value turned out to be 16.7%. For the same compound, in assay [2], the “inhibition” value was “inhibited lipid peroxidation”, the “% reduction of absorbance” value is 22.62% and the Absorbance stood at 0.698 ± 0.007. For the same compound, in assay [3], the “Schild slope ± S.E.M., α1D” value is 1.03 ± 0.09 and the Kb was 4.9 nM.
